Laboratory results as given in patent publication US9656962B2, “Ring-contracted morphinans and the use thereof” (Purdue Pharma L.P., priority 2013, dated 2017).

Assays:
[1] = biological target: T1, μ-opioid receptor (Homo sapiens (Human), UniProt P35372); assay: μ-opioid receptor [35S]GTPγS functional assay, U-2 OS cells (Table 5); assay type: biochemical; conditions: for Emax: relative to DAMGO; for EC50: μ GTP
Procedure, shortened: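 Membranes (0.026 mg/mL) from cells expressing recombinant human μ-opioid receptor in a U-2 OS background were incubated with 0.20 nM [35S]GTPγS, 3 mM GDP and saponin in 20 mM HEPES pH 7.4, 100 mM NaCl, 10 mM MgCl2 for 30 min at about 25 °C. Filter-bound radioactivity counted; sigmoidal dose-response fits gave values, Emax relative to DAMGO.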

[2] = biological target: T2, κ-opioid receptor (Homo sapiens (Human), UniProt P41145); assay: κ-opioid receptor [35S]GTPγS functional assay, U-2 OS cells (Table 5); assay type: biochemical; conditions: for Emax: relative to U69,593; for EC50: κ GTP
Procedure, shortened: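 [35S]GTPγS binding in κ receptor membranes (0.026 μg/μl protein) with 10 μg/mL saponin, 3 μM GDP and 0.20 nM [35S]GTPγS in pH 7.4 HEPES/NaCl/MgCl2 buffer. Agonist incubation lasted 30 min at about 25 °C, followed by filtration and scintillation counting. Emax is expressed relative to U69,593.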

[3] = biological target: recombinant human kappa opioid receptor (κ) (Homo sapiens (Human), UniProt P41145); assay: κ-opioid receptor radioligand binding assay ([3H]-U69,593); conditions: binding affinity
Description: κ-Opioid Receptor Binding Assay Procedures: Membranes from HEK-293 cells, CHO cells or U-2 OS cells expressing the recombinant human kappa opioid receptor (κ) were prepared by lysing cells in ice cold hypotonic buffer (2.5 mM MgCl2, 50 mM HEPES, pH 7.4) (10 mL/10 cm dish) followed by homogenization with a tissue grinder/Teflon pestle. Membranes from a cell line naturally expressing kappa opioid receptor can also be used. Membranes were collected by centrifugation at 30,000×g for 15 min at 4° C. and pellets were resuspended in hypotonic buffer to a final concentration of 1-3 mg/mL. Protein concentrations were determined using the BioRad protein assay reagent with bovine serum albumen as standard. Aliquots of κ receptor membranes were stored at −80° C.
Radioligand dose displacement assays used 0.4 nM [^3H]-U69,593 (GE Healthcare, Piscataway, N.J.; 40 Ci/mmole) with 15 μg membrane protein (recombinant opioid receptor expressed in HEK 293 cells; in-house prep) in a final volume of 200 μl binding buffer (5% DMSO, 50 mM Trizma base, pH 7.4). Non-specific binding was determined in the presence of 10 μM unlabeled naloxone or U69,593. All reactions were performed in 96-well polypropylene plates for 1 hour at a temperature of about 25° C. Binding reactions were terminated by rapid filtration onto 96-well Unifilter GF/C filter plates (Perkin Elmer, Shelton, Conn.) presoaked in 0.5% polyethylenimine (Sigma). Harvesting was performed using a 96-well tissue harvester (Perkin Elmer, Shelton, Conn.) followed by five filtration washes with 200 μl ice-cold binding buffer. Filter plates were subsequently dried at 50° C. for 1-2 hours. Fifty μl/well scintillation cocktail (Perkin Elmer, Shelton, Conn.) was added and plates were counted in a Packard Top-Count for 1 min/well.

[4] = biological target: T2, κ-opioid receptor; assay: κ-opioid receptor [35S]GTPγS functional assay, HEK-293 or CHO cells (Table 4); assay type: biochemical; conditions: for Emax: relative to U69,593; for EC50: κ GTP
Description: κ-Opioid Receptor Functional Assay Procedures: Functional [^35S]GTPγS binding assays were conducted as follows. κ opioid receptor membrane solution was prepared by sequentially adding final concentrations of 0.026 μg/μl κ membrane protein (in-house), 10 μg/mL saponin, 3 μM GDP and 0.20 nM [^35S]GTPγS to binding buffer (100 mM NaCl, 10 mM MgCl2, 20 mM HEPES, pH 7.4) on ice. The prepared membrane solution (190 μl/well) was transferred to 96-shallow well polypropylene plates containing 10 μl of 20× concentrated stock solutions of agonist prepared in DMSO. Plates were incubated for 30 min at a temperature of about 25° C. with shaking. Reactions were terminated by rapid filtration onto 96-well Unifilter GF/B filter plates (Perkin Elmer, Shelton, Conn.) using a 96-well tissue harvester (Packard) and followed by three filtration washes with 200 μl ice-cold binding buffer (10 mM NaH2PO4, 10 mM Na2HPO4, pH 7.4). Filter plates were subsequently dried at 50° C. for 2-3 hours. Fifty μl/well scintillation cocktail (Perkin Elmer, Shelton, Conn.) was added and plates were counted in a Packard Top-Count for 1 min/well.
κ GTP Emax (%) is the maximal effect elicited by a compound relative to the effect elicited by U69,593.
In TABLE 4, activity response of certain Compounds of the Invention to the μ- and κ-opioid receptors was determined as described above for functional assays using HEK-293 or CHO cells.

[5] = biological target: T1, μ-opioid receptor; assay: μ-opioid receptor [35S]GTPγS functional assay, HEK-293 or CHO cells (Table 4); assay type: biochemical; conditions: for Emax: relative to DAMGO; for EC50: μ GTP
Procedure, shortened: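 Membranes from HEK-293, CHO or U-2 OS cells (or commercial) expressing recombinant μ receptor; 0.20 nM [35S]GTPγS, 3 mM GDP, saponin, in 100 mM NaCl/10 mM MgCl2/20 mM HEPES pH 7.4.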

[6] = biological target: T1, μ-opioid receptor; assay: μ-opioid receptor radioligand binding assay ([3H]-diprenorphine); conditions: binding affinity
Description: μ-Opioid Receptor Binding Assay Procedures: Radioligand dose-displacement binding assays for μ-opioid receptors used 0.3 nM [^3H]-diprenorphine (Perkin Elmer, Shelton, Conn.), with […] membrane protein/well in a final volume of 500 μl binding buffer (10 mM MgCl2, 1 mM EDTA, 5% DMSO, 50 mM HEPES, pH 7.4). Reactions were carried out in the absence or presence of increasing concentrations of unlabeled naloxone. All reactions were conducted in 96-deep well polypropylene plates for 2 hours at room temperature. Binding reactions were terminated by rapid filtration onto 96-well Unifilter GF/C filter plates (Perkin Elmer, Shelton, Conn.), presoaked in 0.5% polyethylenimine using a 96-well tissue harvester (Perkin Elmer, Shelton, Conn.) followed by performing three filtration washes with 500 μl of ice-cold binding buffer. Filter plates were subsequently dried at 50° C. for 2-3 hours. BetaScint scintillation cocktail (Perkin Elmer, Shelton, Conn.) was added (50 μl/well), and plates were counted using a Packard Top-Count for 1 min/well. The data were analyzed using the one-site competition curve fitting functions in GraphPad PRISM™ v. 3.0 or higher (San Diego, Calif.), or an in-house function for one-site competition curve-fitting.

Structure (SMILES) | Emax [1] | EC50 [1] | Emax [2] | EC50 [2] | Ki [3] | Emax [4] | EC50 [4] | Emax [5] | EC50 [5] | Ki [6] | EC50 ([5]; bound given in μM)
O=C(NCc1ccccc1)[C@H]1C[C@]23CCN(CC4CC4)[C@H](Cc4ccc(O)cc42)[C@]3(O)C1 [Compound 34, (2S,3aS,4R,9bS)-N-benzyl-12-(cyclopropylmethyl)-3a,8-dihydroxy-1,2,3,3a,4,5-hexahydro-4,9b-(epiminoethano)cyclopenta[a]naphthalene-2-carboxamide] | 94 ± 0.58% | 0.25 ± 0.027 nM | 93.3 ± 3.18% | 0.02 nM | 0.083 ± 0.014 nM | 102 ± 2.73% | 0.094 ± 0.011 nM | 40 ± 1.53% | 0.00375 ± 0.00066 µM |  | 
O=C(O)[C@@H]1C[C@]23CCN(CC4CC4)[C@H](Cc4ccc(O)cc42)[C@]3(O)C1 [Compound 16, (2R,3aS,4R,9bS)-12-(cyclopropylmethyl)-3a,8-dihydroxy-1,2,3,3a,4,5-hexahydro-4,9b-(epiminoethano)-cyclopenta-[a]naphthalene-2-carboxylic acid] | 31.8 ± 3.07% | 4.75 ± 0.62 nM | 90.7 ± 5.81% | 13.2 ± 1.86 nM | 17.3 ± 6.19 nM | 38 ± 2.04% | 12.4 ± 3.66 nM | 1% |  | 55.6 ± 11 nM | > 20 µM
O=C(NCc1ccc(O)cc1O)[C@H]1C[C@]23CCN(CC4CC4)[C@H](Cc4ccc(O)cc42)[C@]3(O)C1 [Compound 42, (2S,3aS,4R,9bS)-12-(cyclopropylmethyl)-N-(2,4-dihydroxybenzyl)-3a,8-dihydroxy-1,2,3,3a,4,5-hexahydro-4,9b-(epimino-ethano)cyclopenta[a]naphthalene-2-carboxamide] | 35 ± 1.15% | 1.33 ± 0.12 nM | 87.7 ± 4.63% | 1.27 ± 0.076 nM | 0.37 ± 0.13 nM | 98.3 ± 1.33% | 0.32 ± 0.059 nM | 1% |  | 0.4 ± 0.024 nM | > 20 µM
COC(=O)[C@@H]1C[C@]23CCN(CC4CC4)[C@H](Cc4ccc(O)cc42)[C@]3(O)C1 [Compound 12, (2R,3aS,4R,9bS)-methyl-12-(cyclopropylmethyl)-3a,8-dihydroxy-1,2,3,3a,4,5-hexahydro-4,9b-(epimino-ethano)cyclopenta[a]naphthalene-2-carboxylate] | 55.6 ± 3.83% | 1.22 ± 0.27 nM | 108 ± 3.51% | 1.7 ± 0.26 nM | 0.3 ± 0.056 nM | 82.7 ± 1.2% | 2.95 ± 1.06 nM | 1% |  | 0.53 ± 0.076 nM | > 20 µM
O=C(NCCN1CCOCC1)[C@H]1C[C@]23CCN(CC4CC4)[C@H](Cc4ccc(O)cc42)[C@]3(O)C1 [Compound 93, (2S,3aS,4R,9bS)-12-(cyclopropylmethyl)-3a,8-dihydroxy-N-(2-morpholinoethyl)-1,2,3,3a,4,5-hexahydro-4,9b-(epimino-ethano)cyclopenta[a]naphthalene-2-carboxamide] |  |  |  |  | 0.64 ± 0.071 nM | 81.5 ± 1.27% | 1.52 ± 0.17 nM | 28.8 ± 4.91% | 0.00395 ± 0.00065 µM |  | 
O=C(NCc1ccccc1)[C@@H]1C[C@]23CCN(CC4CC4)[C@H](Cc4ccc(O)cc42)[C@]3(O)C1 [Compound 33, (2R,3aS,4R,9bS)-N-benzyl-12-(cyclopropylmethyl)-3a,8-dihydroxy-1,2,3,3a,4,5-hexahydro-4,9b-(epiminoethano)cyclopenta[a]naphthalene-2-carboxamide] | 45.7 ± 0.67% | 3.84 ± 0.21 nM | 103 ± 3.48% | 3.18 ± 0.46 nM | 0.75 ± 0.13 nM | 43.3 ± 0.33% | 7.03 ± 0.82 nM | 1% |  | 1.39 ± 0.082 nM | > 20 µM
N=C(N)NCCCCNC(=O)[C@@H]1C[C@]23CCN(CC4CC4)[C@H](Cc4ccc(O)cc42)[C@]3(O)C1 [Compound 7, (2R,3aS,4R,9bS)-12-(cyclopropylmethyl)-N-(4-guanidinobutyl)-3a,8-dibydroxy-1,2,3,3a,4,5-hexahydro-4,9b-(epimino-ethano)cyclopenta[a]naphthalene-2-carboxamide] | 56.3 ± 2.6% | 8.94 ± 1.31 nM | 101 ± 3.67% | 1.16 ± 0.16 nM | 0.13 ± 0.018 nM | 57.5 ± 1.66% | 0.8 ± 0.26 nM | 1% |  | 23.6 ± 5.56 nM | > 20 µM
COc1ccc2c(c1)[C@]13CCN(CC4CC4)[C@H](C2)[C@]1(O)C[C@H](C(N)=O)C3 [Compound 11, (2R,3aS,4R,9bS)-12-(cyclopropylmethyl)-3a-hydroxy-8-methoxy-1,2,3,3a,4,5-hexahydro-4,9b-(epiminoethano)cyclo-penta[a]naphthalene-2-carboxamide] |  |  | 103 ± 1.67% | 1360 ± 49.8 nM | 182 ± 29.2 nM |  |  |  |  | 2980 ± 466 nM | 
